# Assay results as given in US8710003B2, “Treatment of diabetes with milk protein hydrolysate” (Nestec S.A., priority 1999, dated 2014).
# Tested on: NCI-H716 cells
# Assay: Release of active GLP-1 by NCI-H716 cells
# Type: cell-based, human
# Settings: alpha-lactose dose equivalent to that contained in the wheys, 2 h incubation, active GLP-1 only
# Procedure: Cells were grown in suspension at 37° C., 5% CO2. The culture medium consisted of RPMI 1640 supplemented with 10% FBS, 2 mM L-glutamine, 100 IU/ml penicillin and 100 μg/ml streptomycin. […] Cells were, therefore, seeded in dishes coated with […] ® (Becton Dickinson, Bedford, Mass., USA) two days before experiments.
# Two days before experiments, 1×10^6 cells were seeded in 12 well culture plates coated with […] ®. On the day of the experiment, the supernatant was replaced by Krebs-Ringer Bicarbonate Buffer (KRB) containing 0.2% wt/vol BSA with or without CGMP. Cells were incubated for 2 h at 37° C. Supernatants were collected with the addition of 50 μg/ml PMSF and frozen at −80° C. for subsequent analysis by radioimmunoassay (RIA) of GLP-1. Cells were scraped with a rubber policeman and homogenization buffer [1 N HCl containing 5% (v/v) HCOOH, 1% (v/v) trifluoroacetic acid (TFA), and 1% (v/v) NaCl] and sonicated for 15 s. […] The intraassay coefficient of variance was 2.28%.
# Here, a kit was used that only measures the active form of GLP-1, i.e., GLP-1 (7-37) or GLP-1 (7-36 amide), but not the degraded form, GLP-1 (9-36 amide), as was included in the data for FIGS. 1-3.
smiles,measurement,value
OC[C@H]1O[C@@H](O[C@H]2[C@H](O)[C@@H](O)[C@@H](O)O[C@@H]2CO)[C@H](O)[C@@H](O)[C@H]1O [alpha-lactose],GLP-1 secretion compared to the control,144±32%
